Values of other authors in patent publication US6610297B1, “Peptide immunogens for vaccination against and treatment of allergy” (Novartis AG, priority 1996, dated 2003).

Target: T1, FcεRI (Homo sapiens, UniProt P12319)
T1 sequence (P12319 26-257): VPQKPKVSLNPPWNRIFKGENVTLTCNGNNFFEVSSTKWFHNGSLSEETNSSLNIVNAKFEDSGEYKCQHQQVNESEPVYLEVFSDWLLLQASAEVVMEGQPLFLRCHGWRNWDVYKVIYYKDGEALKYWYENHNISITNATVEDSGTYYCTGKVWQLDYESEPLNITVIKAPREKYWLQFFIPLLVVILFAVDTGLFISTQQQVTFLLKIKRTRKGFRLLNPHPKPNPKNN
Conditions: read-out: affinity of IgE for FcεRI (Kd); cited from earlier work

## immunoglobulin E [IgE]
  Kd: ~0.1 nM
